Laboratory results: ChEMBL document CHEMBL1148544, “Discovery, SAR, and X-ray structure of novel biaryl-based dipeptidyl peptidase IV inhibitors” (Bioorg Med Chem Lett, 2006)
pKi: −log10 of the molar value.

Key:
Dipeptidyl peptidase 4 = Dipeptidyl peptidase 4 (Homo sapiens, UniProt P27487)
[1] = Stability in human liver microsomes at 1 uM; type: ADME, Microsome; settings: read-out: Stability
[2] = Permeability from apical to basolateral side of the Caco-2 cell membrane at 10 uM; type: ADME, cell-based; settings: human
[3] = Permeability from basolateral to apical side of the Caco-2 cell membrane at 10 uM; type: ADME, cell-based; settings: human

Sequence of Dipeptidyl peptidase 4 (P27487 whole entry): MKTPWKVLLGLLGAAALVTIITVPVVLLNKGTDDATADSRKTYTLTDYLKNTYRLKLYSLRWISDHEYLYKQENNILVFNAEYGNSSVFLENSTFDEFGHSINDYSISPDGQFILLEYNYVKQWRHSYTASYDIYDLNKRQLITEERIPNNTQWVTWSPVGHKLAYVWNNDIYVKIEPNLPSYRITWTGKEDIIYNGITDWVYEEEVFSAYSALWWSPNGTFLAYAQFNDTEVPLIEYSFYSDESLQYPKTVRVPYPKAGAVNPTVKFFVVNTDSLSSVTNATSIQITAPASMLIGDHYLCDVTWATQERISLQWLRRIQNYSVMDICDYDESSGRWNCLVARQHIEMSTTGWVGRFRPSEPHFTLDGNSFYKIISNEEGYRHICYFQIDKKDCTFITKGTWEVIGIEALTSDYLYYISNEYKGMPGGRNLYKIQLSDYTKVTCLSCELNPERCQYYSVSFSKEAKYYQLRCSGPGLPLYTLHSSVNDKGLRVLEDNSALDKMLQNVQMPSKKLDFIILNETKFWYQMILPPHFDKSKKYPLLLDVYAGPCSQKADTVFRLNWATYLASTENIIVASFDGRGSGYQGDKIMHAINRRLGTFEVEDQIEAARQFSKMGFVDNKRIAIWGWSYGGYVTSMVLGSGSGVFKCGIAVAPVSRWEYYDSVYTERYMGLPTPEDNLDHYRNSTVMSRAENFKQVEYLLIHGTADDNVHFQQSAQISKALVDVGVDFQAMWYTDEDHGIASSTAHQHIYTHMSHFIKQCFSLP

| Compound | pKi (Dipeptidyl peptidase 4) | remaining at 1 µM [1] | Papp A→B at 10 µM [2] | Papp B→A at 10 µM [3] |
| --- | --- | --- | --- | --- |
| N[C@@H](Cc1ccc(-c2ccccc2)cc1)C(=O)N1CCC[C@H]1COCc1ccccc1 | < 4.89 | – | – | – |
| N#C[C@@H]1CCCN1C(=O)[C@@H](N)Cc1ccc(-c2ccccc2)cc1 | – | 52.3% | 2.66 ×10⁻⁶ cm/s | 3.82 ×10⁻⁶ cm/s |
| N#C[C@@H]1CCCN1C(=O)[C@@H](N)Cc1ccc(-c2ccc(F)cc2F)cc1 | – | 73.9% | 4.93 ×10⁻⁶ cm/s | 4.93 ×10⁻⁶ cm/s |
| N[C@@H](Cc1ccc(-c2ccccc2)cc1)C(=O)N1CCC[C@H]1CO | < 4.89 | – | – | – |
| N[C@@H](Cc1ccc(-c2ccccc2)cc1)C(=O)N1CCSC1 | – | 62% | 4.56 ×10⁻⁶ cm/s | 1.5 ×10⁻⁶ cm/s |
| CC1(C)OCCN1C(=O)[C@@H](N)Cc1ccc(-c2ccccc2)cc1 | < 4.89 | – | – | – |
| N#C[C@@H]1CCCN1C(=O)[C@@H](N)Cc1ccc(-c2ccc(F)cc2)cc1 | – | 6.7% | 7.21 ×10⁻⁶ cm/s | 4.45 ×10⁻⁶ cm/s |
| N[C@@H](Cc1cccc2ccccc12)C(=O)N1CCSC1 | < 4.89 | – | – | – |
| N[C@@H](Cc1c[nH]c2ccccc12)C(=O)N1CCSC1 | < 4.89 | – | – | – |
| N[C@@H](Cc1ccc(-c2ccc(F)cc2)cc1)C(=O)N1CCSC1 | – | 78.5% | 16.8 ×10⁻⁶ cm/s | 5.61 ×10⁻⁶ cm/s |
